Results reported in patent publication US7897640B2 (priority 2003, dated 2011).
≈ marks a conversion by molar mass, not a printed value. Like-named read-outs stand apart in the source and are kept apart here.

Legend:
Pseudallescheria boydii = assay: in vitro antifungal test, Pseudallescheria boydii; assay type: cell-based
Candida albicans = assay: comparative MIC experiment, Candida albicans; assay type: cell-based
mycoplasma pneumoniae = assay: bacteriostatic effect on mycoplasma pneumoniae; assay type: cell-based
[1] = tested on: Staphylococcus epidermidis; assay: comparative MIC experiment, Staphylococcus epidermidis; assay type: cell-based
Bacteroid = assay: comparative MIC experiment, Bacteroid; assay type: cell-based
Serratia marcescens = assay: comparative MIC experiment, Serratia marcescens; assay type: cell-based
[2] = tested on: aspergillus fumigatus, cryptococcus and red trichophyton; assay: in vitro antifungal test, aspergillus fumigatus, cryptococcus and red trichophyton; assay type: cell-based
candida and cryptococcus = assay: in vitro antifungal test, candida and cryptococcus; assay type: cell-based
dermatophyte = assay: in vitro antifungal test, dermatophyte; assay type: cell-based
[3] = tested on: AZT-sensitive strain HIV-1 018a
HIV-1 IIIB [4] = assay: HIV-1 P24 antigen inhibition in MT-4 culture
Method: MT-4 cell suspension was counted, then 100 μl of suspension (2×10^5 cells/ml) was seeded into 96-well cell culture plate, 50 μl liquor of 2× diluted medicament or 4-5× diluted positive medicament AZT (8 concentrations) was added, respectively, and 50 μl virus suspension with proper titer was add concurrently. Each dilution was repeated in 3 wells and cell control group and virus control group were established. They were incubated at 37° C., 5% CO2 saturated humidity incubator and the cytopathy was observed everyday. On the fourth day after administration (96 hours), the supernatants were sucked out and stored at −20° C. for measuring HIV-1-P24 antigen titer. Accordingly, the inhibition effect of medicament could be calculated, and the cells were dyed with MTT to measure the cytotoxicity.
The medicated cell supernatants infected with MT-4 were diluted after being thawed. HIV-1 P24 titer was measured according to the operation procedure described in HIV-1 P24 antigen kit.
[formula] 2.2.2 Reed & Muench Method for Calculating CC50 and EC50 of Medicament in Cell Culture
[formula] 2.2.3. Calculation Method of Selection Index (SI) of HIV-1 P24 Antigen in Cell Culture SI=CC50/EC50 3.

[5] = cytotoxicity by MTT in HIV-infected PBMC culture; settings: human, Median cytotoxicity concentration (CC50)
Method: (§1) 10 μl MTT dye (5 mg/ml) was added to each well, and then incubated at 37° C., 5% CO2 saturated humidity incubator for 4 hours. 100 μl 50% DMF-17% Triton X-100 destainer was added to each well and the mixtures were kept at 37° C. overnight. Then OD570nm values were measured at 570 nm with a luminometer to calculate the median cytotoxicity concentration of medicament (CC50).
(§2) The fresh normal human venous blood was taken and PBMC was separated using FiColl separation solution. The 1.5×10^5 cells/ml suspension prepared with the culture fluid containing PHA was seeded into the culture bottle and incubated in the incubator (37° C., 5% CO2) for 72 hours. The cells were collected with cell scrapers then were infected with the 10^−2 viral liquid of AZT-sensitive (018a) or AZT-resistant (018c) viral strain. After absorption for 2 hours, the non-absorbed viruses were washed with serum-free 1640 culture medium. The infected cells were prepared into 1×10^6 cells/ml with the culture fluid, and then were seeded into the 96-well culture board in 100 μl/well. At the same time, 100 μl liquor of 2× diluted AKJ-2 or 5× diluted positive control medicament AZT with different concentrations was added. The cell control group and virus control group were established. Four days (96 hours) after incubating under 37° C., 5% CO2, the supernatants were sucked out and stored at −20° C. to measure HIV-1-P24 antigen titer and calculate the inhibition effect of the medicament. The cells were dyed with MTT to measure the cytotoxicity.

HIV-1 IIIB [6] = assay: HIV-1 P24 antigen inhibition in chronically infected H9 cells
Method: HIV-1 P24 antigen titer was measured according to the operation procedures stated in HIV-1 P24 antigen kit.
100 μl (2×10^5 cells/ml) of H9 cells suspension was seeded into 96-well cell culture plate. Then, 100 μl liquor of 2× diluted medicament or 4-5× diluted positive AZT (8 concentrations) was added. Each dilution was repeated in three wells. The cell control group was established. The cells were incubated in the incubator (37° C., 5% CO2, saturated humidity) and the cytopathy was observed everyday. Four days (96 hours) after administration, the supernatants were sucked out and stored at −20° C. to measure HIV-1-P24 antigen titer. The inhibition effect of the medicament was determined. The cells were dyed with MTT to measure the cytotoxicity.
2.2.2 Reed & Muench Method for Calculating CC50 and EC50 of Medicament in Cell Culture
Calculation Method of Selection Index (SI) of HIV-1 P24 Antigen in Cell Culture SI=CC50/EC50 3.

[7] = tested on: AZT-resistant strain HIV-1 018c; assay: microbe, parasite or virus in culture; settings: Human immunodeficiency virus 1, PBMC, 96 h, read-out: Median effective concentration (EC50), HIV-1 P24 antigen
[8] = tested on: AZT-resistant strain HIV-1 018c; settings: PBMC, AZT-resistant HIV-1 018c
[9] = tested on: AZT-sensitive strain HIV-1 018a; assay: HIV-1 P24 antigen inhibition in PBMC, AZT-sensitive strain
human T lymphocytes MT-4 = assay: cytotoxicity by MTT in MT-4 culture; settings: MT-4 culture with HIV-1 IIIB, 96 hours
solubility = assay type: physicochemical
[10] = tested on: human peripheral blood mononuclear cell (PBMC); assay: cytotoxicity by MTT in HIV-infected PBMC culture; settings: 96 hours
Method: as §1, §2

[11] = tested on: human T lymphocytes H9 chronically infected with HIV-1 IIIB; assay: cytotoxicity by MTT in H9 cells chronically infected with HIV-1 IIIB; settings: H9 cell chronically infected with HIV-1 IIIB, 96 hours
[12] = PBMC infected with AZT-resistant HIV-1 018c
[13] = PBMC infected with AZT-sensitive HIV-1 018a

With `CC(C)=CCC(OC(=O)C=C(C)C)C1=CC(=O)c2c(O)ccc(O)c2C1=O` (stereo not drawn) [β,β-dimethylacrylshikonin] the MIC (Pseudallescheria boydii) was 4.16-8.32 μg/mi, the MIC (Candida albicans) was 3.9062 µg/mL (≈ 10.5 µM) and the MIC (mycoplasma pneumoniae) was 2 µg/mL (≈ 5.4 µM). For the same molecule, the MIC [1] was 0.391 µg/mL (≈ 1.06 µM), the MIC (Bacteroid) was 0.391 µg/mL (≈ 1.06 µM) and the MIC (Serratia marcescens) was 0.781 µg/mL (≈ 2.11 µM). For the same molecule, the MIC [2] was 3.0625 to 250 µg/mL, the MIC (candida and cryptococcus) was 2.08 to 33.3 µg/mL and the MIC90 (candida and cryptococcus) was 33.3 µg/mL (≈ 89.9 µM). It also gave an MIC (dermatophyte) of 4.16 to 8.32 µg/mL and an MIC90 (dermatophyte) of 4.16 µg/mL (≈ 11.2 µM).

In the case of `Cc1cn([C@H]2C[C@H](N=[N+]=[N-])[C@@H](CO)O2)c(=O)[nH]c1=O` [AZT, Zidovudine, reference compound], the “Selection index (CC50/EC50)” value [3] is reported as 10275.78 ± 1530.22, the EC50 (HIV-1 IIIB [4]; Human immunodeficiency virus 1, IIIB, 96 h, read-out: Median effective concentration (EC50), HIV-1 P24 antigen) is reported as 0.09 ± 0.003 µg/mL (≈ 0.337 µM) and the “Selection index (CC50/EC50)” value (HIV-1 IIIB [4]; MT-4, HIV-1 IIIB) is reported as 1808.33 ± 723.07. The CC50 at 96 h [5, 12] was 88 ± 15.5 µg/mL (≈ 329 µM), the CC50 at 96 h [5, 13] was 77.2 ± 20.9 µg/mL (≈ 289 µM) and the “Selection index (CC50/EC50)” value (HIV-1 IIIB [6]; H9 cell chronically infected with HIV-1 IIIB) was 83.65 ± 37.96. For the same molecule, the EC50 (HIV-1 IIIB [6]; Human immunodeficiency virus 1, IIIB, H9, 96 h, read-out: Median effective concentration (EC50), HIV-1 P24 antigen) was 1.08 ± 0.24 µg/mL (≈ 4.04 µM), the EC50 [7] was 0.05 ± 0.01 µg/mL (≈ 0.187 µM) and the “Selection index (CC50/EC50)” value [8] was 1895.40 ± 479.53. The EC50 ([9]; Human immunodeficiency virus 1, PBMC, 96 h, read-out: Median effective concentration (EC50), HIV-1 P24 antigen) was < 6.4 ng/mL.

With `CC[C@H]1OC(=O)[C@H](C)[C@@H](O[C@H]2C[C@@](C)(OC)[C@@H](O)[C@H](C)O2)[C@H](C)[C@@H](O[C@@H]2O[C@H](C)C[C@H](N(C)C)[C@H]2O)[C@](C)(O)C[C@@H](C)C(=O)[C@H](C)[C@@H](O)[C@]1(C)O` [erythrocin, reference compound] the “concentration of equivalent inhibitory effect” value (mycoplasma pneumoniae; comparator) was 0.1925 µg/mL.

For `CC(=O)O[C@H](CC=C(C)C)C1=CC(=O)c2c(O)ccc(O)c2C1=O` [acetylshikonin], the “Median cytotoxicity concentration (CC50)” value (human T lymphocytes MT-4) was 0.49 ± 0.06 µg/mL, the “solubility in DMSO” value (solubility; DMSO) was “soluble” and the solubility in water (solubility; water) was “insoluble”. For the same molecule, the “Selection index (CC50/EC50)” value (HIV-1 IIIB [4]; MT-4, HIV-1 IIIB) was 2.45 ± 0.51, the “Median effective concentration (EC50), HIV-1 P24 antigen” value (from here on “Median effective concentration (EC50)”) (HIV-1 IIIB [4]; MT-4, HIV-1 IIIB, 96 hours) was 0.20 ± 0.03 µg/mL and the “Median cytotoxicity concentration (CC50)” value [10, 12] was 5.83 ± 0.38 µg/mL. The “Median cytotoxicity concentration (CC50)” value [10, 13] was 7.69 ± 0.19 µg/mL, the “Median effective concentration (EC50)” value (HIV-1 IIIB [6]; H9 cell chronically infected with HIV-1 IIIB, 96 hours) was >0.25 ± 0 µg/mL and the “inhibition effect on HIV-1 IIIB chronically-infected H9 cells” value (HIV-1 IIIB [6]; two lots of tests) was “no inhibition effect”. For the same molecule, the “Median effective concentration (EC50)” value ([8]; 96 hours) was >1.25 ± 0 µg/mL, the “Median cytotoxicity concentration (CC50)” value [11] was 1.77 ± 0.13 µg/mL and the “Selection index (CC50/EC50)” value ([9]; PBMC, AZT-sensitive HIV-1 018a) was 6.50 ± 0.08. For the same molecule, the “Median effective concentration (EC50)” value ([9]; PBMC, AZT-sensitive HIV-1 018a, 96 hours) was 1.18 ± 0.03 µg/mL.
